We go through five compounds from patent US10091997B2, “Composition for inhibition of insect host sensing” (Vanderbilt University, priority 2010, dated 2018).

SMILES strings stand for the structures.

Assay [1] relates to AgORco+AgOR10. Put plainly: whole-cell patch clamp, HEK293 cells expressing AgORco+AgOR10. In kind it is cell-based, Anopheles gambiae. The conditions noted are these: for whole-cell currents: AgORco+AgOR10 cells, clamped at −60 mV. As for the experimental part:
(§1) Currents from OR-expressing HEK293 cells were amplified with an Axopatch 200b Amplifier (Axon Instruments) and digitized through a Digidata 1322A (Axon Instruments). Electrophysiological data was recorded and analyzed using pCLAMP 10 (Axon Instruments). Electrodes were fabricated from quartz tubing (Sutter Instruments) and pulled to 4-6 MΩ for whole cell recording. Electrodes were filled with internal solution (120 mM KCl, 30 mM D-glucose, 10 mM HEPES, 2 mM MgCl2, 1.1 mM EGTA, and 0.1 CaCl2 (pH 7.35, 280 mOsm). External (bath) solution contained 130 mM NaCl, 34 mM D-glucose, 10 mM HEPES, 1.5 mM CaCl2, 1.3 mM KH2PO4, and 0.5 MgSO4 (pH 7.35, 300 mOsm). Compounds were diluted in external solution and locally perfused to the recording cell using Perfusion Pencil (Automate Scientific) and controlled by a ValveLink 8.2 controller (Automate Scientific). Whole cell recordings were sampled at 10 kHz and filtered at 5 kHz. Outside-out patches were obtained using 10-15MΩ electrodes pulled from standard glass capillaries (World Precision Instruments) and fire-polished with an MF-830 micro forge (Narishige). Single channel recordings were sampled at 20 kHz. Recordings were reduced to 1 kHz and low-pass filtered at 500 Hz for display and analysis using QuB (SUNY at Buffalo).
(§2) To test the hypothesis that VUAA1 directly agonized AgORco, whole-cell patch clamp responses were examined in AgORco+AgOR10 expressing cells as well HEK293 cells stably expressing AgORco alone. […] The VUAA1-dependent currents in AgORco+AgOR10 cells resembled those resulting from application of benzaldehyde, an orthosteric agonist of AgOR10 (FIG. 3C) (Wang, 2010; Carey, 2010). AgORco+AgOR10 cells were more sensitive to VUAA1 than AgORco cells, producing inward currents at −5.0 log M, a concentration at which AgORco had no response. […] To investigate the specificity of VUAA1 agonism, the inventors transiently transfected HEK cells with the AgORco orthologs of Drosophila melanogaster and Heliothis virescens, DmOR83b and HvOR2 respectively.
On the technique in general: The patch-clamp technique gives a direct electrical read-out from membranes.

In assay [2] the target is T1, AgORco (Anopheles gambiae, UniProt Q7QCC7).
T1 construct: expressed in transfected cells
T1 sequence (Q7QCC7 1-478): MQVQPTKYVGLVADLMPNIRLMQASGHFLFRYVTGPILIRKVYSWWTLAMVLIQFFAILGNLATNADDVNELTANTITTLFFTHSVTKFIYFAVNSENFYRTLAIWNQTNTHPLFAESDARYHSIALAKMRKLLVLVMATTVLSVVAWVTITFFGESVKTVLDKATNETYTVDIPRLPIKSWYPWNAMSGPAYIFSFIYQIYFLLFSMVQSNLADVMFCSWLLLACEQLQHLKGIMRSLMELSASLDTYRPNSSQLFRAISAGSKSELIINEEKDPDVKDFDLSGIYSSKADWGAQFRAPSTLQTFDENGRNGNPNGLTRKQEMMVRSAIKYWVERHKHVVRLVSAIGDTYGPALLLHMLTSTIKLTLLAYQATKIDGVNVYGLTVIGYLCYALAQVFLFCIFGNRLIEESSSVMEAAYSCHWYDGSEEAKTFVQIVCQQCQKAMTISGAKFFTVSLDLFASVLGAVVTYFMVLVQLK
Nature of the assay: whole-cell patch clamp, HEK293 cells stably expressing AgORco alone. As to conditions: for whole-cell currents: AgORco alone cells, clamped at −60 mV. It counts as cell-based. As to the method: as §1, §2

In assay [3] the target is T2, rat transient receptor potential vanilloid 1 (rTRPV1) (Rattus norvegicus, UniProt O35433).
T2 construct: expressed in transfected cells
T2 sequence (O35433 whole entry): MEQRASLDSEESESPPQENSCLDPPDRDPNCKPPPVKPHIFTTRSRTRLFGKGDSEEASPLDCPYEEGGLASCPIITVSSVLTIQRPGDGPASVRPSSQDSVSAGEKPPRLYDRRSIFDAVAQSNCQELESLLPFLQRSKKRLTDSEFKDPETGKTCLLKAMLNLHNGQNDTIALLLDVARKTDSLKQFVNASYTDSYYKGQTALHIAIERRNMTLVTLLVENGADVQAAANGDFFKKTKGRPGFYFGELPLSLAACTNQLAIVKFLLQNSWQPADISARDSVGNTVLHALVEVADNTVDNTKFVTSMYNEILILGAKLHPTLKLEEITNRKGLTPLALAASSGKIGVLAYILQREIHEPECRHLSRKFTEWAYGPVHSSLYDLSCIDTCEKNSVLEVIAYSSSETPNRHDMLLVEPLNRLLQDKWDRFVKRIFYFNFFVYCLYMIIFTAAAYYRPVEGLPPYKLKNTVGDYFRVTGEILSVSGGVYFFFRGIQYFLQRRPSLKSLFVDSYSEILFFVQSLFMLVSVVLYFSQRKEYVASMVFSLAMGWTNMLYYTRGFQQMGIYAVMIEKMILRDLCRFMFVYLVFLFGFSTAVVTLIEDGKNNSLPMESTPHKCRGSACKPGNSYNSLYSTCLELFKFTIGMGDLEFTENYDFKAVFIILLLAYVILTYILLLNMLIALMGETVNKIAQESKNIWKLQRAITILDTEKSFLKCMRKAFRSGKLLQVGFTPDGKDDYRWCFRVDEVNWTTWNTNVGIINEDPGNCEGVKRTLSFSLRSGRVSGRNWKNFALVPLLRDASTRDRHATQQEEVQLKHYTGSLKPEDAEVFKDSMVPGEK
Put plainly: whole-cell patch clamp, HEK cells stably expressing rTRPV1. In kind it is cell-based.
Description: To determine the broad-spectrum specificity of VUAA1, the inventors tested VUAA1 on another non-selective cation channel, transient receptor potential vanilloid receptor 1 (TRPV1) (Caterina, 1997; Bohlen, 2010).

Assay [4] deals with Un-transfected HEK293 cells. Nature of the assay: whole-cell patch clamp, control HEK293 cells (un-transfected or GFP alone). It counts as cell-based, human. As to the method: as §1

Turning to `Nc1ncnc2c1nc(Br)n2[C@@H]1O[C@@H]2COP(=O)(O)O[C@H]2[C@H]1O` [8-Br cAMP], the whole-cell currents result in assay [1] and in assay [2] was “unable to evoke whole-cell currents” throughout.
For `Nc1nc2c(nc(Br)n2[C@@H]2O[C@@H]3COP(=O)(O)O[C@H]3[C@H]2O)c(=O)[nH]1` [8-Br cGMP], the whole-cell currents entry in assay [1] and in assay [2] was “unable to evoke whole-cell currents” throughout.
Take `COc1cc(CNC(=O)CCCC/C=C/C(C)C)ccc1O` [Capsaicin, reference compound]: the whole-cell currents result in assay [3] is “elicited a robust response”.
As for `N.N.N.N.N.N.N.N.N.N.N.N.N.N.[Cl-].[Cl-].[Cl-].[Cl-].[Cl-].[Cl-].[O-2].[O-2].[Ru+3].[Ru+3].[Ru+4]` [RR, ruthenium red], the “reduction of VUAA1-elicited currents” value in assay [1] (AgOrco+AgOR10 cells, agonist VUAA1) is listed as 68.3±2.8%. For the same compound, the “reduction of benzaldehyde-elicited currents” value in assay [1] (AgOrco+AgOR10 cells, agonist benzaldehyde) came out at 87.8±1.8%. The “reduction of VUAA1 responses” value in assay [2] (AgORco cells, agonist VUAA1) was found to be 79.4±4.0%.
Turning to `O=Cc1ccccc1` [benzaldehyde, reference compound], the whole-cell currents result is on record as “concentration-dependent responses” in assay [1] and “only AgORco+AgOR10 cells responded to BA” in assay [2]. Moreover, in assay [4] (HEK cells transfected with GFP alone), the “whole-cell currents in GFP alone cells” value is reported as “no currents”. Besides, the “whole-cell currents in control cells” value in assay [4] (control / un-transfected HEK293 cells) is recorded as “did not respond”.
